The record followed here is the supplement of paper PMC10307832.

Common to all, as to assay: relative viability (nuclei count vs DMSO), 5 days (fraction); higher = more cells survive
Compound in the test “Bortezomib + Trametinib”: CC(C)C[C@H](NC(=O)[C@H](Cc1ccccc1)NC(=O)c1cnccn1)B(O)O [Bortezomib] + CC(=O)Nc1cccc(-n2c(=O)n(C3CC3)c(=O)c3c(Nc4ccc(I)cc4F)n(C)c(=O)c(C)c32)c1 [Trametinib] (partner 0.02 µM)
The method in brief:
(§1)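 Cells from lung cancer lines were seeded into 1536-well plates and, one day later, dosed by pin tool. Treatments were either a single drug or a fixed dose of an anchor drug with five library-drug doses (not always all listed) in √10 steps. After 5 days, nuclei were stained in a one-step fixation (final 0.05% Triton X-100, 1% formaldehyde, 1 ug/ml Hoechst) and counted on 4× images, and relative viability is the treated-to-vehicle nuclei ratio, as the median of duplicate plates.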

Compound in test [1]: CC1=CC(=NN1)NC2=CC(=NC(=N2)/C=C/C3=CC=CC=C3)N4CCN(CC4)C + Cc1cc(Nc2cc(N3CCN(C)CC3)nc(Sc3ccc(NC(=O)C4CC4)cc3)n2)n[nH]1 [Tozasertib] (partner 0.1 µM)
The method in brief: as §1

Compound in the test “Obatoclax + OSI-027”: COC1=CC(c2cc3ccccc3[nH]2)=N/C1=C\c1[nH]c(C)cc1C [Obatoclax] + COc1cccc2cc(-c3nc([C@H]4CC[C@H](C(=O)O)CC4)n4ncnc(N)c34)[nH]c12 [OSI-027] (partner 0.5 µM)
The method in brief:
as §1

Compound in the test “Obatoclax + Vorinostat”: COC1=CC(c2cc3ccccc3[nH]2)=N/C1=C\c1[nH]c(C)cc1C [Obatoclax] + O=C(CCCCCCC(=O)Nc1ccccc1)NO [Vorinostat] (partner 1 µM)
The gist of the method: as §1

A-427: the relative viability in the test with Bortezomib + Trametinib (first compound 0.0002 µM) was found to be 0.657; with Bortezomib + Trametinib (first compound 0.000632 µM), 0.842; with Bortezomib + Trametinib (first compound 0.002 µM), 0.696; with Bortezomib + Trametinib (first compound 0.006325 µM), 0.216; with Bortezomib + Trametinib (first compound 0.02 µM), 0.161; in test [1] (first compound 0.08 µM) it was 0.212. Moreover, the relative viability in test [1] (first compound 0.253 µM) worked out at 0.136; in test [1] (first compound 0.8 µM), 0.178; in test [1] (first compound 2.53 µM), 0.0979; in test [1] (first compound 8 µM), 0.0938; with Obatoclax + OSI-027 (first compound 0.01 µM), 0.513; with Obatoclax + OSI-027 (first compound 0.03162 µM) it was 0.462. Also, the relative viability was 0.49 with Obatoclax + OSI-027 (first compound 0.1 µM); 0.418 with Obatoclax + OSI-027 (first compound 0.3162 µM); 0.399 in the test with Obatoclax + OSI-027 (first compound 1 µM); 0.839 in the test with Obatoclax + Vorinostat (first compound 0.01 µM); 0.836 with Obatoclax + Vorinostat (first compound 0.03162 µM); 0.741 in the test with Obatoclax + Vorinostat (first compound 0.1 µM). The relative viability in the test with Obatoclax + Vorinostat (first compound 0.3162 µM) came out at 0.835; with Obatoclax + Vorinostat (first compound 1 µM), 0.664.

Regarding NCI-H358, the relative viability in the test with Bortezomib + Trametinib (first compound 0.0002 µM) is 0.12; with Bortezomib + Trametinib (first compound 0.000632 µM) it was 0.121; in the test with Bortezomib + Trametinib (first compound 0.002 µM), 0.133; with Bortezomib + Trametinib (first compound 0.006325 µM), 0.094; with Bortezomib + Trametinib (first compound 0.02 µM), 0.0906; in test [1] (first compound 0.08 µM) it was 0.103. For the same cell line, the relative viability in test [1] (first compound 0.253 µM) came out at 0.103; in test [1] (first compound 0.8 µM), 0.0892; in test [1] (first compound 2.53 µM), 0.089; in test [1] (first compound 8 µM), 0.0711; in the test with Obatoclax + OSI-027 (first compound 0.01 µM), 0.736; in the test with Obatoclax + OSI-027 (first compound 0.03162 µM), 0.871. Also, the relative viability with Obatoclax + OSI-027 (first compound 0.1 µM) is 0.903; in the test with Obatoclax + OSI-027 (first compound 0.3162 µM), 0.379; in the test with Obatoclax + OSI-027 (first compound 1 µM), 0.199; with Obatoclax + Vorinostat (first compound 0.01 µM), 0.661; with Obatoclax + Vorinostat (first compound 0.03162 µM) it was 0.73; in the test with Obatoclax + Vorinostat (first compound 0.1 µM) it was 0.595. Also, the results for the relative viability with Obatoclax + Vorinostat (first compound 0.3162 µM) and in the test with Obatoclax + Vorinostat (first compound 1 µM) were 0.183 and 0.141, respectively.

Take NCI-H1651: the relative viability came out at 0.802 with Bortezomib + Trametinib (first compound 0.0002 µM); 0.843 with Bortezomib + Trametinib (first compound 0.000632 µM); 0.726 with Bortezomib + Trametinib (first compound 0.002 µM); 0.155 with Bortezomib + Trametinib (first compound 0.006325 µM); 0.117 with Bortezomib + Trametinib (first compound 0.02 µM); 0.678 in test [1] (first compound 0.08 µM). The relative viability in test [1] (first compound 0.253 µM) came out at 0.658; in test [1] (first compound 0.8 µM) it was 0.661; in test [1] (first compound 2.53 µM), 0.296; in test [1] (first compound 8 µM), 0.177; with Obatoclax + OSI-027 (first compound 0.01 µM), 0.628; with Obatoclax + OSI-027 (first compound 0.03162 µM) it was 0.712. For the same cell line, the relative viability in the test with Obatoclax + OSI-027 (first compound 0.1 µM) was 0.804; in the test with Obatoclax + OSI-027 (first compound 0.3162 µM), 0.428; with Obatoclax + OSI-027 (first compound 1 µM) it was 0.252; in the test with Obatoclax + Vorinostat (first compound 0.01 µM) it was 0.587; in the test with Obatoclax + Vorinostat (first compound 0.03162 µM) it was 0.491; in the test with Obatoclax + Vorinostat (first compound 0.1 µM) it was 0.512. The relative viability with Obatoclax + Vorinostat (first compound 0.3162 µM) was 0.384; with Obatoclax + Vorinostat (first compound 1 µM), 0.595.

On to NCI-H520, for which the relative viability with Bortezomib + Trametinib (first compound 0.0002 µM) stood at 0.667; with Bortezomib + Trametinib (first compound 0.000632 µM) it was 0.741; with Bortezomib + Trametinib (first compound 0.002 µM), 0.451; with Bortezomib + Trametinib (first compound 0.006325 µM), 0.141; with Bortezomib + Trametinib (first compound 0.02 µM), 0.128; in test [1] (first compound 0.08 µM), 0.432. The relative viability is 0.464 in test [1] (first compound 0.253 µM); 0.381 in test [1] (first compound 0.8 µM); 0.307 in test [1] (first compound 2.53 µM); 0.176 in test [1] (first compound 8 µM); 0.256 with Obatoclax + OSI-027 (first compound 0.01 µM); 0.284 with Obatoclax + OSI-027 (first compound 0.03162 µM). In addition, the relative viability in the test with Obatoclax + OSI-027 (first compound 0.1 µM) stood at 0.406; in the test with Obatoclax + OSI-027 (first compound 0.3162 µM), 0.251; in the test with Obatoclax + OSI-027 (first compound 1 µM), 0.243; in the test with Obatoclax + Vorinostat (first compound 0.01 µM), 0.685; with Obatoclax + Vorinostat (first compound 0.03162 µM), 0.712; in the test with Obatoclax + Vorinostat (first compound 0.1 µM), 0.764. Besides, the relative viability amounted to 0.542 with Obatoclax + Vorinostat (first compound 0.3162 µM) and 0.315 in the test with Obatoclax + Vorinostat (first compound 1 µM).

NCI-H522: the relative viability turned out to be 0.753 with Bortezomib + Trametinib (first compound 0.0002 µM); 0.821 with Bortezomib + Trametinib (first compound 0.000632 µM); 0.796 with Bortezomib + Trametinib (first compound 0.002 µM); 0.387 in the test with Bortezomib + Trametinib (first compound 0.006325 µM); 0.331 with Bortezomib + Trametinib (first compound 0.02 µM); 0.559 in test [1] (first compound 0.08 µM). Also, the relative viability in test [1] (first compound 0.253 µM) is 0.579; in test [1] (first compound 0.8 µM) it was 0.684; in test [1] (first compound 2.53 µM), 0.462; in test [1] (first compound 8 µM) it was 0.399; in the test with Obatoclax + OSI-027 (first compound 0.01 µM) it was 0.7; with Obatoclax + OSI-027 (first compound 0.03162 µM) it was 0.718. For the same cell line, the relative viability with Obatoclax + OSI-027 (first compound 0.1 µM) worked out at 0.71; in the test with Obatoclax + OSI-027 (first compound 0.3162 µM) it was 0.734; with Obatoclax + OSI-027 (first compound 1 µM), 0.775; with Obatoclax + Vorinostat (first compound 0.01 µM), 0.891; in the test with Obatoclax + Vorinostat (first compound 0.03162 µM), 0.794; in the test with Obatoclax + Vorinostat (first compound 0.1 µM), 0.793. The relative viability with Obatoclax + Vorinostat (first compound 0.3162 µM) worked out at 0.967; with Obatoclax + Vorinostat (first compound 1 µM) it was 0.973.

As for 201T, the relative viability came out at 0.732 with Bortezomib + Trametinib (first compound 0.0002 µM); 0.72 in the test with Bortezomib + Trametinib (first compound 0.000632 µM); 0.685 with Bortezomib + Trametinib (first compound 0.002 µM); 0.625 in the test with Bortezomib + Trametinib (first compound 0.006325 µM); 0.262 with Bortezomib + Trametinib (first compound 0.02 µM); 0.973 in test [1] (first compound 0.08 µM). Also, the relative viability was 0.916 in test [1] (first compound 0.253 µM); 0.746 in test [1] (first compound 0.8 µM); 0.388 in test [1] (first compound 2.53 µM); 0.25 in test [1] (first compound 8 µM); 0.762 with Obatoclax + OSI-027 (first compound 0.01 µM); 0.786 with Obatoclax + OSI-027 (first compound 0.03162 µM). For the same cell line, the relative viability with Obatoclax + OSI-027 (first compound 0.1 µM) turned out to be 0.773; with Obatoclax + OSI-027 (first compound 0.3162 µM), 0.748; in the test with Obatoclax + OSI-027 (first compound 1 µM) it was 0.822; in the test with Obatoclax + Vorinostat (first compound 0.01 µM), 0.954; in the test with Obatoclax + Vorinostat (first compound 0.03162 µM), 0.834; with Obatoclax + Vorinostat (first compound 0.1 µM), 0.968. In addition, the relative viability worked out at 0.959 with Obatoclax + Vorinostat (first compound 0.3162 µM) and 1.06 with Obatoclax + Vorinostat (first compound 1 µM).
